# Assay results reported in US20230141403A1 (Hoffmann-La Roche Inc., priority 2020, published 2023).
# Structures can show the parent of a compound that is named as a salt.
# Test system: Acinetobacter baumannii ATCC17961
# Experiment: Antimicrobial susceptibility testing: 90% growth inhibitory concentration (IC90) determination
# Format: cell-based
# Details: Acinetobacter baumannii, ATCC17961, 16 h, 90% growth inhibitory concentration; Iso-Sensitest broth, optical density at 600 nm over 16h, 35±2° C.; read-out: AB ATCC 17961 IC90
# Method: Antimicrobial Susceptibility Testing:
# 90% Growth Inhibitory Concentration (IC90) Determination
# The in vitro antimicrobial activity of the compounds was determined according to the following procedure:
# The assay used a 10-points Iso-Sensitest broth medium to measure quantitatively the in vitro activity of the compounds against Acinetobacter baumannii ATCC17961 or ATCC17978.
# Stock compounds in DMSO were serially twofold diluted (e.g. range from 50 to 0.097 μM final concentration) in 384 wells microtiter plates and inoculated with 49 μl the bacterial suspension in Iso-Sensitest medium to have a final cell concentration of ˜5×10^(5) CFU/ml in a final volume/well of 50 ul/well. Microtiter plates were incubated at 35±2° C.
# Bacterial cell growth was determined with the measurement of optical density at λ=600 nm each 20 minutes over a time course of 16h. Growth inhibition was calculated during the logarithmic growth of the bacterial cells with determination of the concentration inhibiting 50% (IC50) and 90% (IC90) of the growth.
# Table 2 provides the 90% growth inhibitory concentrations (IC90) in micromoles per liter of the compounds of present invention obtained against the strain Acinetobacter baumannii ATCC17961.
row,SMILES,IC90 [µM]
1,"CCc1cc(Nc2nccn3c(-c4ccc(OC)c(F)c4F)cnc23)ccc1S(=O)(=O)N1CCN(C(=O)C2(O)CCNCC2)CC1 [Example 109, (4-((4-((3-(2,3-difluoro-4-methoxyphenyl)imidazo [1,2-alpyrazin-8-yl)amino)-2-ethylphenyl)sulfonyl)piperazin-1-yl)(4-hydroxypiperidin-4-yl)methanonbydrochloride]",0.64
2,"CCc1cc(Nc2nccn3c(-c4ccc(OC)c(F)c4F)cnc23)ccc1S(=O)(=O)N1CCN(C(=O)C[N+](C)(C)C)CC1 [Example 110, 2-(4-((4-((3-(2,3-difluoro-4-methoxyphenyl)imidazo[1,2-a]pyrazin-8-yl)amino)-2-ethylphenyl)sulfonyl)piperazin-1-yl)-N,N,N-trimethyl-2-oxoethan-1-aminium iodide]",0.33
3,"CCc1cc(Nc2nccn3c(-c4ccc(OC)c(F)c4F)cnc23)ccc1S(=O)(=O)N1CCN(C(=O)[C@@H]2CCN(C(=O)[C@@H]3C[C@@H](O)CN3)C2)CC1 [Example 111, (4-((4-((3-(2,3-difluoro-4-methoxyphenyl)imidazo[1,2-a]pyrazin-s-yl)amino)-2-ethylphenyl)sulfonyl)piperazin-1-yl)((R)-1-((2S,4R)-4-hydroxypyrrolidine-2-carbonyl)pyrrolidin-3-yl)methanone hydrochloride]",0.87
4,"COc1ccc(-c2cnc3c(Nc4ccc(N5CCC(CN)CC5)c(C)c4)nccn23)c(F)c1F [Example 113, N-(4-(4-(aminomethyl)piperidin-1-yl)-3-methylphenyl)-3-(2,3-difluoro-4-methoxyphenyl) imidazo [1,2-a]pyrazin-8-amine hydrochloride]",0.37
5,"CCc1cc(Nc2nccn3c(-c4ccc(OC)c(F)c4F)cnc23)ccc1N1CCC(CN)CC1 [Example 114, N-(4-(4-(aminomethyl)piperidin-1-yl)-3-ethylphenyl)-3-(2,3-difluoro-4-methoxyphenyl) imidazo [1,2-a]pyrazin-8-amine hydrochloride]",0.81
6,"COc1ccc(-c2cnc3c(Nc4ccc(N5CCC(CN)CC5)c(Cl)c4)nccn23)c(F)c1F [Example 115, N-(4-(4-(aminomethyl)piperidin-1-yl)-3-chlorophenyl)-3-(2,3-difluoro-4-methoxyphenyl) imidazo [1,2-a]pyrazin-8-amine hydrochloride]",0.49
7,"COc1ccc(-c2cnc3c(Nc4ccc(S(=O)(=O)C[C@H]5CC[C@H](N)CC5)c(Cl)c4)nccn23)c(F)c1F [Example 116, rac-N-(4-((((lr,4r)-4-aminocyclohexyl)methyl)sulfonyl)-3-chlorophenyl)-3-(2,3-difluoro-4-methoxyphenyl)imidazol[1,2-a]pyrazin-8-amine]",0.22
8,"COc1ccc(-c2cnc3c(Nc4ccc(Cn5ccnc5)c(C)c4)nccn23)c(F)c1F [Example 118, 3-(2,3-difluoro-4-methoxy-phenyl)-N-[4-(imidazol-1-ylmethyl)-3-methyl-phenyl]imidazo[1,2-a]pyrazin-8-amine]",0.12
9,"Cc1cc(Nc2nccn3c(-c4ccc(Oc5ccccn5)c(F)c4F)cnc23)ccc1OCCOCCOCCN [Example 122, N-(4-(2-(2-(2-aminoethoxy)ethoxy)ethoxy)-3-methylphenyl)-3-(2,3-difluoro-4-(pyridin-2-yloxy)phenyl)imidazo[1,2-a]pyrazin-8-amine]",0.65
10,"CCc1cc(Nc2nccn3c(-c4ccc(OC)c(F)c4F)cnc23)ccc1C[N+](C)(C)C [Example 123, [4-[[3-(2,3-difluoro-4-methoxy-phenyl)imidazo[1,2-a]pyrazin-8-yl]amino]-2-ethyl-phenyl]methyl-trimethyl-ammonium]",0.58
11,"COc1ccc(-c2cnc3c(Nc4ccc5c(c4)CCC5=O)nccn23)c(F)c1F [Example 125, 5-[[3-(2,3-difluoro-4-methoxy-phenyl)imidazo[1,2-a]pyrazin-8-yl]amino]indan-1-one]",0.36

# Same assay, conditions: Acinetobacter baumannii, ATCC17961, 16 h, read-out: AB ATCC 17961 IC90 (uM)
row,SMILES,IC90 [µM]
1,"COc1ccc(-c2cnc3c(Nc4ccc(N5CCC(CN)CC5)cc4)nccn23)c(F)c1F [Example 112, N-(4-(4-(aminomethyl)piperidin-1-yl)phenyl)-3-(2,3-difluoro-4-methoxyphenyl)imidazo[1,2-a]pyrazin-8-amine hydrochloride]",0.56
